Tests used:
FADD−/− Jurkat cells = assay: Necroptosis inhibition assay, TNF-α-induced necroptosis (CellTiter-Glo 2.0); format: cell-based, human; details: TNF-α 15 ng/mL; for Necroptosis inhibition assay (Rescue %) 1 μM: compound 1 μM; for Necroptosis inhibition assay (Rescue %) 10 μM: compound 10 μM
How it was run: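 Cells at 5.0×10^5 cells/mL were pretreated with compound (final 0.1, 1 and 10 μM) for 30 minutes at room temperature, then given TNF-α at 15 ng/mL final. After 20 to 24 hours at 37° C, 5% CO2, viability was read as ATP luminescence to calculate cytotoxicity and necroptosis inhibition rate.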

MLKL [1] = molecular target: T1, MLKL (Homo sapiens, UniProt Q8NB16); assay: MLKL degradation assay in HepG2 cell line (western blot); format: cell-based; design: endogenous in cells; host or cells: HepG2 or HaCaT; details: cell line not given; for Degradation assay (Degradation %) 1 μM: compound 1 μM; for Degradation assay (Degradation %) 10 μM: compound 10 μM
T1 sequence (Q8NB16 1-471): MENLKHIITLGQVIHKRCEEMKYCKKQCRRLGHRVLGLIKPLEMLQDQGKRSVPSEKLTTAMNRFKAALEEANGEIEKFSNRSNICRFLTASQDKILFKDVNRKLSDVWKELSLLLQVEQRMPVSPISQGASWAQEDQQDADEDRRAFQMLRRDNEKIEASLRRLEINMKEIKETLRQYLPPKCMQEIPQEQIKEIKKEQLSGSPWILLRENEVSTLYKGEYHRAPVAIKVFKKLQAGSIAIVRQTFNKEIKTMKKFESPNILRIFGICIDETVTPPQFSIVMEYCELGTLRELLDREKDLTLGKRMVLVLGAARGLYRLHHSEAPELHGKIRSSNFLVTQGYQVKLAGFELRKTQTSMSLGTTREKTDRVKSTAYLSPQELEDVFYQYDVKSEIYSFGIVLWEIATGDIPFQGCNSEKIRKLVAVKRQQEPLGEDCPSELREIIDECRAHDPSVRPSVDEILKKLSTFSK
How it was run: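 HepG2 cells were exposed to compound at a final 1 or 10 μM for 20-24 hours at 37 °C, 5% CO2. RIPA lysates were normalized by BCA assay, 10-15 μg protein resolved by SDS-PAGE, and MLKL levels detected by western blot with chemiluminescence.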

MLKL [2] = molecular target: T1, MLKL; assay: Measurement of binding affinity with MLKL receptor (competitive binding assay, Kd); design: made in house; host or cells: HEK 293 cell line (T7 phage in E. coli BL21-derived host is also described)
How it was run: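 MLKL was produced in HEK 293 cells and tagged with DNA for detection. Liganded beads were blocked with excess biotin and washed to cut non-specific binding, then compounds (111× DMSO stocks, 0.9% DMSO in assay) competed for binding. Eluate kinase was measured by qPCR for Kd.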

SMILES	Necroptosis inhibition assay (Rescue %) 1 μM (FADD−/− Jurkat cells; FADD−/− Jurkat cells) [%]	Necroptosis inhibition assay (Rescue %) 10 μM (FADD−/− Jurkat cells; FADD−/− Jurkat cells) [%]	Degradation assay (Degradation %) 1 μM (MLKL [1]) [%]	Degradation assay (Degradation %) 10 μM (MLKL [1]) [%]	Kd (MLKL [2]) [nM]	Necroptosis inhibition assay (Rescue %) 1 μM (FADD−/− Jurkat cells) [%]	Necroptosis inhibition assay (Rescue %) 10 μM (FADD−/− Jurkat cells) [%]
Nc1ncc(-c2cnn(C3CCN(C(=O)CC4CCN(C(=O)CCc5cccc6c5CN(C5CCC(=O)NC5=O)C6=O)CC4)CC3)c2)nc1C(=O)O[C@@H](C(=O)Nc1ccc(F)cc1)c1ccccc1 (stereo partly drawn) [TDH-404, (R)-2-((4-fluorophenyl)amino)-2-oxo-1-phenylethyl 3-amino-6-(1-(1-(2-(1-(3-(2-(2,6-dioxopiperidin-3-yl)-1-oxoisoindolin-4-yl)propanoyl)piperidin-4-yl)acetyl)piperidin-4-yl)-1H-pyrazol-4-yl)pyrazine-2-carboxylate]	26.83	49.11	45.30	79.08	1.1		
Nc1ncc(-c2cnn(C3CN(CC4CCN(C(=O)CNc5ccc6c(c5)C(=O)N(C5CCC(=O)NC5=O)C6=O)CC4)C3)c2)nc1C(=O)OC(C(=O)Nc1ccc(F)cc1)c1ccccc1 (stereo not drawn) [TDH-297, 2-((4-fluorophenyl)amino)-2-oxo-1-phenylethyl 3-amino-6-(1-(1-((1-((2-(2,6-dioxopiperidin-3-yl)-1,3-dioxoisoindolin-5-yl)glycyl)piperidin-4-yl)methyl)azetidin-3-yl)-1H-pyrazol-4-yl)pyrazine-2-carboxylate]			76.86	70.16	13	74.28	63.92
Nc1ncc(-c2cnn(C3CCN(CCOCCNC(=O)C4CN(c5ccc6c(c5)C(=O)N(C5CCC(=O)NC5=O)C6=O)C4)CC3)c2)nc1C(=O)O[C@@H](C(=O)Nc1ccc(F)cc1)c1ccccc1 (stereo partly drawn) [TDH-127, (R)-2-((4-fluorophenyl)amino)-2-oxo-1-phenylethyl 3-amino-6-(1-(1-(2-(2-(1-(2-(2,6-dioxopiperidin-3-yl)-1,3-dioxoisoindolin-5-yl)azetidine-3-carboxamido)ethoxy)ethyl)piperidin-4-yl)-1H-pyrazol-4-yl)pyrazine-2-carboxylate]			4.37	43.64	5.6	34.64	49.65
Nc1ncc(-c2cnn(C3CCN(CCOCCNc4cccc5c4C(=O)N(C4CCC(=O)NC4=O)C5=O)CC3)c2)nc1C(=O)O[C@@H](C(=O)Nc1ccc(F)cc1)c1ccccc1 (stereo partly drawn) [TDH-130, (R)-2-((4-fluorophenyl)amino)-2-oxo-1-phenylethyl 3-amino-6-(1-(1-(2-(2-((2-(2,6-dioxopiperidin-3-yl)-1,3-dioxoisoindolin-4-yl)amino)ethoxy)ethyl)piperidin-4-yl)-1H-pyrazol-4-yl)pyrazine-2-carboxylate]			58.3	24.87	11	40.74	27.69
Nc1ncc(-c2cnn(C3CCN(CCCCCCCCCCNC(=O)C4CN(c5ccc6c(c5)C(=O)N(C5CCC(=O)NC5=O)C6=O)C4)CC3)c2)nc1C(=O)O[C@@H](C(=O)Nc1ccc(F)cc1)c1ccccc1 (stereo partly drawn) [TDH-159, (R)-2-((4-fluorophenyl)amino)-2-oxo-1-phenylethyl 3-amino-6-(1-(1-(10-(1-(2-(2,6-dioxopiperidin-3-yl)-1,3-dioxoisoindolin-5-yl)azetidine-3-carboxamido)decyl)piperidin-4-yl)-1H-pyrazol-4-yl)pyrazine-2-carboxylate]				29.21	18	33.57	34.1
Nc1ncc(-c2cnn(C3CCN(CC4CCN(C(=O)Cc5cccc(NC6=CC(=O)N(C7CCC(=O)NC7=O)C6=O)c5)CC4)CC3)c2)nc1C(=O)O[C@@H](C(=O)Nc1ccc(F)cc1)c1ccccc1 (stereo partly drawn) [TDH-516, (R)-2-((4-fluorophenyl)amino)-2-oxo-1-phenylethyl 3-amino-6-(1-(1-((1-(2-(3-((1-(2,6-dioxopiperidin-3-yl)-2,5-dioxo-2,5-dihydro-1H-pyrrol-3-yl)amino)phenyl)acetyl)piperidin-4-yl)methyl)piperidin-4-yl)-1H-pyrazol-4-yl)pyrazine-2-carboxylate]	17.46	5.65	81.44	77.67	9.7		
COc1ccc(C(=O)N2CCC(CN3CCC4(CC3)CC(N3CCC(n5cc(-c6cnc(N)c(C(=O)O[C@@H](C(=O)Nc7ccc(F)cc7)c7ccccc7)n6)cn5)CC3)C4)CC2)cc1N1CCC(=O)NC1=O [TDH-499, (R)-2-((4-fluorophenyl)amino)-2-oxo-1-phenylethyl 3-amino-6-(1-(1-(7-((1-(3-(2,4-dioxotetrahydropyrimidin-1(2H)-yl)-4-methoxybenzoyl)piperidin-4-yl)methyl)-7-azaspiro[3.5]nonan-2-yl)piperidin-4-yl)-1H-pyrazol-4-yl)pyrazine-2-carboxylate]	45.83	11.8	90.60	91.41	0.41		
Nc1ncc(-c2cnn(C3CCN(C(=O)C4CCN(C(=O)C5CN(c6ccc7nnn(C8CCC(=O)NC8=O)c(=O)c7c6)C5)CC4)CC3)c2)nc1C(=O)O[C@@H](C(=O)Nc1ccc(F)cc1)c1ccccc1 (stereo partly drawn) [TDH-409, (R)-2-((4-fluorophenyl)amino)-2-oxo-1-phenylethyl 3-amino-6-(1-(1-(1-(1-(3-(2,6-dioxopiperidin-3-yl)-4-oxo-3,4-dihydrobenzo[d][1,2,3]triazin-6-yl)azetidine-3-carbonyl)piperidine-4-carbonyl)piperidin-4-yl)-1H-pyrazol-4-yl)pyrazine-2-carboxylate]	39.62	24.45	81.20	71.90	1.6		
Nc1ncc(-c2cnn(C3CCN(C(=O)CCC4CCN(C(=O)COc5ccc6nnn(C7CCC(=O)NC7=O)c(=O)c6c5)CC4)CC3)c2)nc1C(=O)O[C@@H](C(=O)Nc1ccc(F)cc1)c1ccccc1 (stereo partly drawn) [TDH-437, (R)-2-((4-fluorophenyl)amino)-2-oxo-1-phenylethyl 3-amino-6-(1-(1-(3-(1-(2-((3-(2,6-dioxopiperidin-3-yl)-4-oxo-3,4-dihydrobenzo[d][1,2,3]triazin-6-yl)oxy)acetyl)piperidin-4-yl)propanoyl)piperidin-4-yl)-1H-pyrazol-4-yl)pyrazine-2-carboxylate]	42.82	23.20	87.34	79.50	1.3		
Nc1ncc(-c2cnn(C3CCN(CC4CCN(C5=CC(=O)N(C6CCC(=O)NC6=O)C5=O)CC4)CC3)c2)nc1C(=O)O[C@@H](C(=O)Nc1ccc(F)cc1)c1ccccc1 (stereo partly drawn) [TDH-521, (R)-2-((4-fluorophenyl)amino)-2-oxo-1-phenylethyl 3-amino-6-(1-(1-((1-(1-(2,6-dioxopiperidin-3-yl)-2,5-dioxo-2,5-dihydro-1H-pyrrol-3-yl)piperidin-4-yl)methyl)piperidin-4-yl)-1H-pyrazol-4-yl)pyrazine-2-carboxylate]	0.16	1.33	91.54	78.62	1.5		
Nc1ncc(-c2cnn(C3CCN(CCC4CCN(C5CC6(CCN(C(=O)Cc7cccc(NC8=CC(=O)N(C9CCC(=O)NC9=O)C8=O)c7)CC6)C5)CC4)CC3)c2)nc1C(=O)O[C@@H](C(=O)Nc1ccc(F)cc1)c1ccccc1 (stereo partly drawn) [TDH-509, (R)-2-((4-fluorophenyl)amino)-2-oxo-1-phenylethyl 3-amino-6-(1-(1-(2-(1-(7-(2-(3-((1-(2,6-dioxopiperidin-3-yl)-2,5-dioxo-2,5-dihydro-1H-pyrrol-3-yl)amino)phenyl)acetyl)-7-azaspiro[3.5]nonan-2-yl)piperidin-4-yl)ethyl)piperidin-4-yl)-1H-pyrazol-4-yl)pyrazine-2-carboxylate]	19.06	5.55	76.18	73.70	0.78		
